The values that follow come from patent US20260193265A1, “Phyllochlorin analogues suitable for use in photodynamic therapy (PDT)” (RMW CHO Group Limited, priority 2022, published 2026).

Data set [1] deals with Human ovarian cancer cell line SKOV3.
For data set [2] the test system is unchanged. Briefly: Phototoxicity in SKOV3 cells after 652 nm laser activation (AlamarBlue viability). It counts as cell-based. As to conditions: for range of phototoxicity IC90 values in vitro: result in words. How it is done:
Samples were stored at 4° C. protected from light.
All data are shown as mean±SD (where appropriate).
To test for phototoxicity, cells incubated with phyllochlorin analogues (0-10 μM in DMSO) had culture media replaced after 24 hours (as above) and were then exposed to a 652 nm laser (Invion) with laser density at 50 mW/cm^2 for 5 mins (total 15 J/cm^2). Following activation, cells were cultured for a further 24 hours. Media was then replaced with fresh media containing AlamarBlue, and % viable cells remaining assessed as above. Controls included cells treated with phyllochlorin analogues but not activated by laser light; cells without phyllochlorin analogue treatment but with laser light; and untreated controls. All measurements were made in quadruplicate.
(In general: Resazurin is reduced to fluorescent resorufin, in cell work by metabolically active cells.)

The test system is the same in data set [3]. Briefly: Inherent cytotoxicity (dark toxicity) in SKOV3 cells (AlamarBlue viability). As to conditions: 24 hours incubation, no light, AlamarBlue 6 hours.
Experimental: Photosensitizers (e.g. phyllochlorin analogue, chlorin e4 disodium (provided by Advanced Molecular Technologies, Scoresby) or Talaporfin sodium (purchased from Focus Bioscience cat #HY-16477-5MG)) were resuspended in 100% dimethylsulfoxide (DMSO) at a concentration of 5.5 mM. Samples were stored at 4° C. protected from light.
For in vitro experiments, photosensitizers (stock solution 5.5 mM in 100% DMSO) were diluted 1:100 in concentrated excipient solution (final 55 μM photosensitizer in 10% w/v Kollidon-12, 42.4% w/v polysorbate 80, 0.6% w/v citric acid anhydrous, 40% w/v ethanol, 1.0% DMSO). Serial dilutions were prepared in cell culture media (Dulbecco's Modified Eagle Medium/Nutrient Mixture F-12 (DMEM/F-12)) supplemented with 10% v/v Fetal Bovine Serum, 100 U/mL penicillin, 100 μg/mL streptomycin and the same excipient solution at a constant 1:55 dilution.
Human ovarian cancer cell line SKOV3 (ATCC #HTB-77) was maintained in Dulbecco's Modified Eagle Medium/Nutrient Mixture F-12 (DMEM/F-12), supplemented with 10% v/v Fetal Bovine Serum, 100 U/mL penicillin and 100 μg/mL streptomycin. Monolayer cultures were grown in a humidified incubator at 37° C. with 5% CO2. Once cells had reached ~80% confluence, spent media was replaced with media containing photosensitizer at the required concentration and cells were incubated for the desired period of time to allow photosensitizer uptake.
All data were analysed using GraphPad PRISM v8.3.1 (549) (GraphPad Software, CA). Spectral absorbance and viability measurements were normalized in the range 0-100%, with a minimum of 0 and a maximum value determined from the dataset. Dose response was determined using a sigmoidal four-point non-linear regression with variable slope, and IC10 or IC90 calculated for each compound. All data are shown as mean±SD (where appropriate).
SKOV3 cells were seeded in 96-well black wall plates (Greiner #655090) at a cell density of 5000 cells in 100 μl culture medium per well. On reaching ~60% confluence, media was aspirated and replaced with fresh media containing the relevant phyllochlorin analogue from 0-100 μM in DMSO. Cells were incubated for a further 24 hours, allowing uptake of phyllochlorin analogues.
To test for inherent cytotoxicity (i.e. “dark toxicity”) of the phyllochlorin analogues, the culture media was replaced after 24 hours with fresh media containing 10% (v/v) AlamarBlue Cell Viability Reagent (ThermoFisher) and cells incubated at 37° C. for 6 hours. Untreated cells were used as a control. Fluorescence (Ex 555 nm/Em 596 nm) was measured using a Cytation 3 Cell Imaging Multi-Mode Reader (Biotek), and cytotoxicity assessed according to the % viable cells remaining. All measurements were made in quadruplicate.
The phototoxicity and inherent cytotoxicity (i.e. “dark toxicity”) of several phyllochlorin analogues were assessed as previously using SKOV3 ovarian cancer cells. For comparative purposes, phyllochlorin analogues were compared against chlorin e4 disodium and Talaporfin sodium, a clinically approved photosensitizer used in the photodynamic treatment of lung cancers. Phototoxicity IC90 values and dark toxicity IC10 values were calculated using a log[inhibitor]-vs normalized response dose curve with variable slope, using the formula Y=100/(1+(IC90/X)^HillSlope (phototoxicity IC90)) or Y=100/(1+(IC10/X)^HillSlope (dark toxicity IC10)).
[4] abbreviates: Homo sapiens, SK-OV-3, light or radiation study, 24 hours uptake, 652 nm laser 50 mW/cm^2 for 5 mins (total 15 J/cm^2), viability 24 hours after activation, read-out: Phototoxicity μM (IC90).
Setting [5] is: Homo sapiens, SK-OV-3, light or radiation study, 652 nm laser, read-out: apparent phototoxicity IC90.

Structures can show the parent of a compound that is named as a salt. Where two headings read alike, the source gives them in different places. Some results are limits rather than exact numbers.

In general, IC90 refers to the point of the concentration-response curve where the effect stands at 90%. In the case of `C=Cc1c(C)c2cc3nc(c(C)c4[nH]c(cc5nc(cc1[nH]2)C(C)=C5CC)c(C)c4C(=O)O)[C@@H](CCC(=O)O)[C@@H]3C` [Chlorin e4 disodium, reference compound], the “Dark toxicity μM (IC10)” value in data set [1] was determined as 40.23 µM. The concentration for an effect of 90% (IC90) in data set [2] (24 hours uptake, 652 nm laser 50 mW/cm^2 for 5 mins (total 15 J/cm^2), viability 24 hours after activation, read-out: Phototoxicity μM (IC90)) stood at 21.3 µM. The “range of phototoxicity IC90 values in vitro” value in data set [2] was “μM range”.
In the case of `C=Cc1c(C)c2cc3nc(c(C)c4cc(C)c(cc5nc(cc1[nH]2)C(C)=C5CC)[nH]4)[C@@H](CCCO)[C@@H]3C` [Compound 1, 3-((7S,8S)-18-ethyl-2,5,8,12,17-pentamethyl-13-vinyl-7H,8H-porphyrin-7-yl)propan-1-ol], the “Dark toxicity μM (IC10)” value in data set [1] (human, 24 h) amounted to 46.10 µM. Also, the IC90 in data set [2] (setting [4]) was 0.12 µM.
The corresponding values for `C=Cc1c(C)c2cc3nc(c(C)c4cc(C)c(cc5nc(cc1[nH]2)C(C)=C5CC)[nH]4)[C@@H](CCCOC(C)=O)[C@@H]3C` [Compound 2, 3-((7S,8S)-18-ethyl-2,5,8,12,17-pentamethyl-13-vinyl-7H,8H-porphyrin-7-yl)propyl acetate] are 66.93 µM and 0.48 µM.
Turning to `C=Cc1c(C)c2cc3nc(c(C)c4cc(C)c(cc5nc(cc1[nH]2)C(C)=C5CC)[nH]4)[C@@H](CCCSCCCS[C@@H]1O[C@H](CO)[C@@H](O)[C@H](O)[C@H]1O)[C@@H]3C` [Compound 4, (2S,3R,4S,5S,6R)-2-((3-((3-((7S,8S)-18-ethyl-2,5,8,12,17-pentamethyl-13-vinyl-7H,8H-porphyrin-7-yl)propyl)thio)propyl)thio)-6-(hydroxymethyl)tetrahydro-2H-pyran-3,4,5-triol], the “Dark toxicity μM (IC10)” value in data set [1] (human, 24 h) is 23.13 µM. In addition, the 90% effect concentration (IC90) in data set [2] (setting [5]) was less than 0.1 µM; in data set [2] (setting [4]), 0.07 µM.
The corresponding values for `C=Cc1c(C)c2cc3nc(c(C)c4cc(C)c(cc5nc(cc1[nH]2)C(C)=C5CC)[nH]4)[C@@H](CCCS[C@@H]1O[C@H](CO)[C@@H](O)[C@H](O)[C@H]1O)[C@@H]3C` [Compound 5] are 13.18 µM, less than 0.1 µM and 0.05 µM.
As to `C=Cc1c(C)c2cc3nc(c(C)c4cc(C)c(cc5nc(cc1[nH]2)C(C)=C5CC)[nH]4)[C@@H](CCCN)[C@@H]3C` [Compound 7, phyllochlorin 3-aminopropyl], the “Dark toxicity μM (IC10)” value in data set [1] (human, 24 h) is 11.55 µM. The IC90 in data set [2] (setting [5]) is less than 0.1 µM; in data set [2] (setting [4]) it was 0.05 µM.
Taken in the same sequence, the figures for `C=Cc1c(C)c2cc3nc(c(C)c4cc(C)c(cc5nc(cc1[nH]2)C(C)=C5CC)[nH]4)[C@@H](CCCNC(=O)[C@@H](N)C(C)C)[C@@H]3C` [Compound 8, phyllochlorin 3-aminopropyl-valine amide hydrochloride] were 11.89 µM, less than 0.1 µM and 0.09 µM.
Take `C=Cc1c(C)c2cc3nc(c(C)c4cc(C)c(cc5nc(cc1[nH]2)C(C)=C5CC)[nH]4)[C@@H](CCC[n+]1ccccc1)[C@@H]3C` [Compound 9, phyllochlorin 3-pyridiniumpropyl iodide]: the “Dark toxicity μM (IC10)” value in data set [3] stood at 4.91 µM. The IC90 in data set [2] (setting [4]) amounted to 0.006 µM.
Taken in the same sequence, the figures for `C=Cc1c(C)c2cc3nc(c(C)c4cc(C)c(cc5nc(cc1[nH]2)C(C)=C5CC)[nH]4)[C@@H](CCC[P+](c1ccccc1)(c1ccccc1)c1ccccc1)[C@@H]3C` [Compound 10, phyllochlorin 3-triphenylphosphoniumpropyl iodide] were 4.52 µM and 0.003 µM.
As to `C=Cc1c(C)c2cc3nc(c(CC(=O)N[C@@H](CC(=O)O)C(=O)O)c4[nH]c(cc5nc(cc1[nH]2)C(C)=C5CC)c(C)c4C(=O)O)[C@@H](CCC(=O)O)[C@@H]3C` [Talaporfin sodium, reference compound], in data set [1] (human, 24 h), the “Dark toxicity μM (IC10)” value came out at 11.10 µM. The “range of phototoxicity IC90 values in vitro” value in data set [2] is “μM range”.
